# Experimental data: ChEMBL document CHEMBL1121482, “Prevention of Ames test mutagenicity by chemical modification in a series of monoamine oxidase inhibitors” (J Med Chem, 1980)
# What was measured:
# Salmonella typhimurium [1] = assay: Ames test averaged in revertants/plate with Salmonella Typhimurium TA98 at 0.50 mg/plate; format: functional, Salmonella enterica subsp. enterica serovar Typhimurium
# Salmonella typhimurium [2] = assay: Ames test averaged in revertants/plate with Salmonella Typhimurium TA1538 at 1.0 mg/plate; format: functional, Salmonella enterica subsp. enterica serovar Typhimurium
# Salmonella typhimurium [3] = assay: Ames test averaged in revertants/plate with Salmonella Typhimurium TA1538 at 0.25 mg/plate; format: functional, Salmonella enterica subsp. enterica serovar Typhimurium
# Salmonella typhimurium [4] = assay: Ames test averaged in revertants/plate with Salmonella Typhimurium TA1538 at 0.13 mg/plate; format: functional, Salmonella enterica subsp. enterica serovar Typhimurium
# [5] = Partition coefficient (logP); format: physicochemical; conditions: octanol/water
# Salmonella typhimurium [6] = assay: Ames test averaged in revertants/plate with Salmonella Typhimurium TA98 at 0.25 mg/plate; format: functional, Salmonella enterica subsp. enterica serovar Typhimurium
# Salmonella typhimurium [7] = assay: Ames test averaged in revertants/plate with Salmonella Typhimurium TA1538 at 0.50 mg/plate; format: functional, Salmonella enterica subsp. enterica serovar Typhimurium
# Salmonella typhimurium [8] = assay: Ames test averaged in revertants/plate with Salmonella Typhimurium TA98 at 1.0 mg/plate; format: functional, Salmonella enterica subsp. enterica serovar Typhimurium
# Salmonella typhimurium [9] = assay: Ames test averaged in revertants/plate with Salmonella Typhimurium TA98 at 0.13 mg/plate; format: functional, Salmonella enterica subsp. enterica serovar Typhimurium
# Salmonella typhimurium [10] = assay: Ames test averaged in reverts/plate with Salmonella Typhimurium TA1538 at 0.13 mg/plate; format: functional, Salmonella enterica subsp. enterica serovar Typhimurium
# Salmonella typhimurium [11] = assay: Ames test averaged in revertants/plate with Salmonella Typhimurium TA1538 at 0.5 mg/plate; format: functional, Salmonella enterica subsp. enterica serovar Typhimurium
# Salmonella typhimurium [12] = assay: Ames test averaged in revertants/plate with Salmonella Typhimurium TA98 at 0.1 mg/plate; format: functional, Salmonella enterica subsp. enterica serovar Typhimurium
# Salmonella typhimurium [13] = assay: Ames test averaged in revertants/plate with Salmonella Typhimurium TA1538 at 5 mg/plate; format: functional, Salmonella enterica subsp. enterica serovar Typhimurium
# Salmonella typhimurium [14] = assay: Ames test averaged in revertants/plate with Salmonella Typhimurium TA98 at 2.5 mg/plate; format: functional, Salmonella enterica subsp. enterica serovar Typhimurium
# Salmonella typhimurium [15] = assay: Ames test averaged in revertants/plate with Salmonella Typhimurium TA1538 at 0.1 mg/plate; format: functional, Salmonella enterica subsp. enterica serovar Typhimurium
# Salmonella typhimurium [16] = assay: Ames test averaged in revertants/plate with Salmonella Typhimurium TA98 at 0.5 mg/plate; format: functional, Salmonella enterica subsp. enterica serovar Typhimurium
# Salmonella typhimurium [17] = assay: Ames test averaged in revertants/plate with Salmonella Typhimurium TA98 at 5 mg/plate; format: functional, Salmonella enterica subsp. enterica serovar Typhimurium
# Salmonella typhimurium [18] = assay: Ames test averaged in revertants/plate with Salmonella Typhimurium TA1538 at 2.5 mg/plate; format: functional, Salmonella enterica subsp. enterica serovar Typhimurium
Structure (SMILES),logP [5],Revertants/plate (Salmonella typhimurium [1]),Revertants/plate (Salmonella typhimurium [2]),Revertants/plate (Salmonella typhimurium [3]),Revertants/plate (Salmonella typhimurium [4]),Revertants/plate (Salmonella typhimurium [6]),Revertants/plate (Salmonella typhimurium [7]),Revertants/plate (Salmonella typhimurium [8]),Revertants/plate (Salmonella typhimurium [9]),Revertants/plate (Salmonella typhimurium [10]),Revertants/plate (Salmonella typhimurium [11]),Revertants/plate (Salmonella typhimurium [12]),Revertants/plate (Salmonella typhimurium [13]),Revertants/plate (Salmonella typhimurium [14]),Revertants/plate (Salmonella typhimurium [15]),Revertants/plate (Salmonella typhimurium [16]),Revertants/plate (Salmonella typhimurium [17]),Revertants/plate (Salmonella typhimurium [18])
CC(=O)Nc1ccc2c(c1)S(=O)(=O)c1ccccc1-2,–,2,2,0,–,0,2,4,0,0,–,–,–,–,–,–,–,–
CC(=O)Nc1ccc2c(c1)S(=O)(=O)c1ccccc1C2=O,2.35,–,–,–,–,–,–,–,–,–,0,0,0,0,0,0,0,0
CC(=O)Nc1ccc2c(c1)[nH]c1ccccc12,3.02,468,775,762,679,732,699,456,725,–,–,–,–,–,–,–,–,–

# Further lines, with some results ahead:
logP [5],Structure (SMILES),Revertants/plate (Salmonella typhimurium [1]),Revertants/plate (Salmonella typhimurium [2]),Revertants/plate (Salmonella typhimurium [3]),Revertants/plate (Salmonella typhimurium [4]),Revertants/plate (Salmonella typhimurium [6]),Revertants/plate (Salmonella typhimurium [7]),Revertants/plate (Salmonella typhimurium [8]),Revertants/plate (Salmonella typhimurium [9]),Revertants/plate (Salmonella typhimurium [10]),Revertants/plate (Salmonella typhimurium [11]),Revertants/plate (Salmonella typhimurium [12]),Revertants/plate (Salmonella typhimurium [13]),Revertants/plate (Salmonella typhimurium [14]),Revertants/plate (Salmonella typhimurium [15]),Revertants/plate (Salmonella typhimurium [16]),Revertants/plate (Salmonella typhimurium [17]),Revertants/plate (Salmonella typhimurium [18])
2.76,CC(=O)Nc1ccc2c(c1)S(=O)(=O)c1ccc(C)cc1C2=O,0,5,2,0,0,0,8,1,–,–,–,–,–,–,–,–,–
3.44,CCc1ccc2c(c1)C(=O)c1ccc(NC(C)=O)cc1S2(=O)=O,0,2,0,1,0,1,0,0,–,–,–,–,–,–,–,–,–
3.51,CCCc1ccc2c(c1)C(=O)c1ccc(NC(C)=O)cc1S2(=O)=O,0,0,0,0,0,0,0,0,–,–,–,–,–,–,–,–,–
